Where two headings read alike, the source gives them in different places.
Tests used:
[1] = pH-responsiveness by HPLC: emetine released in aqueous phosphate buffer; format: physicochemical; conditions: 37° C.
Description: Relative rates of hydrolysis of the compounds listed in Table 5 below over a 48 hour period were evaluated using the percent emetine released from the acid catalyzed hydrolysis of compounds 1 to 6.
The compounds were incubated in aqueous phosphate buffer at pH 5.5, 6.5 and 7.4 at 37° C. over a 48 hour period. High performance liquid chromatography (HPLC) was employed to analyze the samples and quantify how much emetine was released. The compounds whose hydrolysis to emetine is shown in table 5 are all 100% stable at physiological pH 7.4 up to a 5 day exposure.

[2] = In vivo toxicity study in mice
Text: Each experiment or dosage involved three mice, and drug solutions were made in 1% DMSO/PBS. Each experiment was done three times.
The compounds were subjected to in vivo toxicity studies as follows. […] This observation was the same on the third and fourth day.

DU145 cells [3] = assay: Cytotoxicity in 100% confluent DU145 cells (Example 9); format: cell-based; conditions: Homo sapiens, DU-145, 120 h; DU145, 100% confluent cells, medium pH 6.7, day 5
Description: (§1) The cytotoxicity of emetine and Compound 2 (as produced above in Example 1 and referred to in the figures as “ESA44”) was evaluated in DU145 and PC3 cells using 100% confluent cells. Cells were plated at 40,000 cells per well and allowed to grow for 4 days until the pH of the medium was 6.7. Compound 2 was added in RPMI, pH 7.0. The effect of the pH on the hydrolysis of Compound 2 to release emetine was evaluated. FIGS. 1 and 2 are graphs showing the viability of DU145 and PC3 cells as percent of vehicle on day 5 versus concentration of emetine and Compound 2.

PC3 cells [4] = assay: Cytotoxicity in 100% confluent PC3 cells (Example 9); format: cell-based; conditions: Homo sapiens, PC-3, 120 h; PC3, 100% confluent cells, medium pH 6.7, day 5
Description: as §1

PC3 cells [5] = assay: cells; format: cell-based; conditions: Homo sapiens
Description: (§2) Studies were carried out on three prostate cancer cell lines: LNCaP, PC3, and DU145. […] There was not a significant difference in cytotoxicity of emetine between days 3 and 7. […] This increase is most likely due to the release of emetine from the dithiocarbamate salt over the time period. Further drug release studies at pH 5 confirmed about 45% release of emetine from the dithiocarbamate salt after 3-day incubation at this acidic pH maintained at 37° C., whereas release of emetine from the dithiocarbamate salt was not observed at physiological pH (e.g., about 7.4).
(§3) Various compounds prepared according to Examples 1-5 were studied in LNCaP, PC3, and DU145 cells.
(§4) Various compounds prepared according to Example 6 were studied in DU145 and PC3 cells. The IC50 was determined at 3, 5, and 7 days.

DU145 cells [6] = assay: cells; format: cell-based; conditions: Homo sapiens
Description: as §2, §3, §4

LNCaP cells = assay: Cytotoxicity in LNCaP prostate cancer cell line; format: cell-based; conditions: Homo sapiens
Description: as §2, §3

In the case of `CCC1CN2CCc3cc(OC)c(OC)cc3C2CC1CC1c2cc(OC)c(OC)cc2CCN1C(=O)/C=C(/C)C(=O)O` (stereo not drawn) [Compound 5], the “% Emetine at pH 5.5” value ([1]; pH 5.5, 0 hr) is reported as 0.0%, the “% Emetine at pH 5.5” value ([1]; pH 5.5, 24 hrs) is reported as 61.5% and the “% Emetine at pH 5.5” value ([1]; pH 5.5, 48 hrs) is reported as 77.3%. For the same compound, the “% Emetine at pH 6.5” value ([1]; pH 6.5, 0 hr) was 0.0%, the “% Emetine at pH 6.5” value ([1]; pH 6.5, 24 hrs) was 24.9% and the “% Emetine at pH 7.4 to 8.0 over 72 hrs” value ([1]; pH 7.4 to 8.0, 0 hrs) was 0.0%. The “% Emetine at pH 7.4 to 8.0 over 72 hrs” value ([1]; pH 7.4 to 8.0, 24 hrs) was 0.0%, the “% Emetine at pH 7.4 to 8.0 over 72 hrs” value ([1]; pH 7.4 to 8.0, 48 hrs) was 0.0% and the toxicity observation ([2]; 11 and 33 MPK, day 5) was “no noticeable toxicity effect”. The toxicity observation ([2]; 100 MPK or below (33 and 11 MPK), through third and fourth day) was “no noticeable toxicity” and the toxicity observation ([2]; 100 MPK, day 5) was “slight weight loss”.
In the case of `CC[C@H]1CN2CCc3cc(OC)c(OC)cc3[C@@H]2C[C@@H]1C[C@H]1NCCc2cc(OC)c(OC)cc21` [Emetine], the IC50 (DU145 cells [3]) is reported as 12900 ± 2390 nM, the IC50 (PC3 cells [4]) is reported as 3850 ± 149 nM and the IC50 (PC3 cells [5]; PC-3, 72 h, PC3, 3 day exposure, read-out: IC50) is reported as 35.1 nM. It also gave an IC50 (PC3 cells [5]; PC-3, 168 h, PC3, 7 days, read-out: IC50 after 7 days) of 26.8 ± 2.28 nM, an IC50 (PC3 cells [5]; PC-3, 168 h, PC3, seven day exposure, read-out: IC50) of 29.4 nM and an IC50 (DU145 cells [6]; DU-145, 72 h, DU145, 3 day exposure, read-out: IC50) of 37.9 nM. It also gave an IC50 (DU145 cells [6]; DU-145, 168 h, DU145, 7 days, read-out: IC50 after 7 days) of 23.7 ± 1.22 nM, an IC50 (DU145 cells [6]; DU-145, 168 h, DU145, seven day exposure, read-out: IC50) of 23.4 nM and an IC50 (LNCaP cells; 72 h, 3 day exposure, read-out: IC50) of 32.9 nM. The IC50 (LNCaP cells; 168 h, 7 days, read-out: IC50 after 7 days) was 27.8 ± 3.84 nM, the IC50 (LNCaP cells; 168 h, seven day exposure, read-out: IC50) was 31.6 nM and the toxicity observation ([2]; 33 and 11 MPK) was “slight weight loss”. For the same compound, the toxicity observation ([2]; single dose 100 MPK, within 48 hours) was “killed all three mice”.
